Reference: US4668677A, “4-phenylphthalazine derivatives, their preparation and their use as pharmaceuticals” (Mitsubishi Chemical Industries Limited, priority 1984, dated 1987)
Structures can show the parent of a compound that is named as a salt.

Key:
[1] = system: femoral artery; assay: Blood pressure in femoral artery, topical cerebral blood flow test; type: in vivo, rabbit (male New Zealand White)
Protocol: (§1) The compound of this invention was dissolved in an aqueous solution containing 1% tartaric acid and 1% dimethylacetamide, while papaverine hydrochloride dissolved in 0.9% physiological saline. These test compounds were intravenously given through a residual polyethylene tube within femoral vein.
(§2) Physiol. Scand., 67, 1 (1966); "Kokyu to Junkan" (in Japanese), 15, 435 (1967); the Journal of the Pharmacological Society of Japan, 71, 709 (1975)]. Simultaneously, blood pressure in femoral artery was also determined. Preparation and administration of test compounds were carried out in the same manner as in the above item (6).

[2] = system: candate nucleus; assay: Activity to increase topical cerebral blood flow, candate nucleus (heat clearance method); type: in vivo, rabbit (male New Zealand White); settings: change in blood flow expressed in terms of voltage
Protocol: as §1, §2

[3] = system: carotid artery; assay: Action on blood flow volume in carotid artery; type: in vivo, rabbit (male New Zealand White)
Protocol: (§3) Male New Zealand White rabbits (body weight of 2.8 Kg to 3.5 Kg) were used and anesthetized with pentobarbital sodium. Blood flow volumes in the carotid artery and femoral artery were measured and recorded via a non-blood observing type of a probe for measuring blood flow volume. Also, blood pressure in femoral artery was simultaneously measured and recorded with measurement of blood flow.
as §1

[4] = system: femoral artery; assay: Action on blood flow volume in femoral artery; type: in vivo, rabbit (male New Zealand White)
Protocol: as §3, §1

[5] = system: femoral artery; assay: Action on blood pressure in femoral artery; type: in vivo, rabbit (male New Zealand White)
Protocol: as §3, §1

[6] = system: Thoracic aorta; assay: Calcium antagonistic activity (relaxation of thoracic aorta); type: cell-based, rat (male Wistar strain); settings: Rattus norvegicus; final concentration 10 μM; 10 mM CaCl2
Protocol: Thoracic aorta was removed from male Wistar strain rats with a body weight of 350 g to 450 g and then spiral-shaped pieces of aorta were prepared therefrom. […] Thereafter, samples were further stabilized in Krebs-Henseleit solution containing no CaCl2 over 1 hour and then in a 80 mM KCl nutritive liquid wherein NaCl was exchanged with an equimolar KCl (depolarized liquid) over a further one hour. Then, samples were washed with the depolarized liquid and loaded with a static tension of 1.0 g. When CaCl2 was added to the nutritive liquid so as to reach a final concentration of 10 mM, tension was produced in samples and, after 15-20 minutes from the addition of CaCl2, the maximum tension was obtained. At this point, test compounds were applied and relaxing activity of test compounds was evaluated. Tension was determined in equal dimension.
Relaxation rate was calculated according to the following equation: [formula] A: Maximum tension generated B: Generated tension retained after administration of test compound
All test compounds were given in the form of a solution in dimethyl sulfoxide at a dose of 0.1 ml, whereupon a final concentration of dimethyl sulfoxide itself was adjusted to 0.5 V/V %.

[7] = system: cerebral cortex; assay: Activity to increase topical cerebral blood flow, cerebral cortex (heat clearance method); type: in vivo, rabbit (male New Zealand White); settings: change in blood flow expressed in terms of voltage
Protocol: as §1, §2

COc1ccc(Cc2nccc3cc(OC)c(OC)cc23)cc1OC [Papaverine hydrochloride, papaverine hydrochloride, reference compound]
Lowering of blood pressure in femoral artery ([1]; 0.3 mg/Kg i.v.): 15.0 ± 1.2% | Lowering of blood pressure in femoral artery ([1]; 1 mg/Kg i.v.): 20.8 ± 3.4% | Increase in topical blood flow volume, Candate nucleus ([2]; 0.3 mg/Kg i.v.): 0.19 ± 0.04 Δ μV | Increase in topical blood flow volume, Candate nucleus ([2]; 1 mg/Kg i.v.): 0.35 ± 0.07 Δ μV | Blood flow volume in carotid artery, A: Before administration ([3]; 0.5 mg/Kg i.v.): 18.6 mL/min | Blood flow volume in carotid artery, B: After administration ([3]; 0.5 mg/Kg i.v.): 38.7 mL/min | Blood flow volume in carotid artery, C: Increase degree ([3]; 0.5 mg/Kg i.v.): 20.1 mL/min | Blood flow volume in carotid artery, D: Increase rate ([3]; 0.5 mg/Kg i.v.): 108.3% | Blood flow volume in carotid artery, A: Before administration ([3]; 1.0 mg/Kg i.v.): 19.3 mL/min | Blood flow volume in carotid artery, B: After administration ([3]; 1.0 mg/Kg i.v.): 26.3 mL/min | Blood flow volume in carotid artery, C: Increase degree ([3]; 1.0 mg/Kg i.v.): 7.0 mL/min | Blood flow volume in carotid artery, D: Increase rate ([3]; 1.0 mg/Kg i.v.): 33.2% | Blood flow volume in femoral artery, A: Before administration ([4]; 0.5 mg/Kg i.v.): 16.8 mL/min | Blood flow volume in femoral artery, B: After administration ([4]; 0.5 mg/Kg i.v.): 23.0 mL/min | Blood flow volume in femoral artery, C: Increase degree ([4]; 0.5 mg/kg i.v.): 6.1 mL/min | Blood flow volume in femoral artery, D: Increase rate ([4]; 0.5 mg/kg i.v.): 40.3% | Blood flow volume in femoral artery, A: Before administration ([4]; 1.0 mg/Kg i.v.): 30.1 mL/min | Blood flow volume in femoral artery, B: After administration ([4]; 1.0 mg/Kg i.v.): 40.0 mL/min | Blood flow volume in femoral artery, C: Increase degree ([4]; 1.0 mg/kg i.v.): 9.8 mL/min | Blood flow volume in femoral artery, D: Increase rate ([4]; 1.0 mg/kg i.v.): 32.7% | Blood pressure in femoral artery, A: Before administration ([5]; 0.5 mg/kg i.v.): 94.8 mmHg | Blood pressure in femoral artery, B: After administration ([5]; 0.5 mg/kg i.v.): 82.4 mmHg | Blood pressure in femoral artery, E: Lowering degree ([5]; 0.5 mg/kg i.v.): 12.4 mmHg | Blood pressure in femoral artery, F: Lowering rate ([5]; 0.5 mg/kg i.v.): 13.2% | Blood pressure in femoral artery, A: Before administration ([5]; 1.0 mg/kg i.v.): 91.8 mmHg | Blood pressure in femoral artery, B: After administration ([5]; 1.0 mg/kg i.v.): 68.8 mmHg | Blood pressure in femoral artery, E: Lowering degree ([5]; 1.0 mg/kg i.v.): 23.1 mmHg | Blood pressure in femoral artery, F: Lowering rate ([5]; 1.0 mg/kg i.v.): 25.3% | inhibition at 10 µM [6]: 0% | Increase in topical blood flow volume, Cerebral cortex ([7]; 0.3 mg/Kg i.v.): 0.57 ± 0.11 Δ μV | Increase in topical blood flow volume, Cerebral cortex ([7]; 1 mg/Kg i.v.): 1.05 ± 0.21 Δ μV
